The values that follow come from a melting point compilation (Tetko et al.; mined from patent text by program, amines drawn as free bases though some values may be those of a salt).

What is called melting point is the temperature of the solid-liquid transition. On to `COc1cc(CC#Cc2c(C)nc(N)nc2N)cc(OC)c1OC`, for which the melting point lay in the range of 164 to 166 °C.

`CC(Cc1c[nH]c2ccccc12)C1=CCNCC1` (centres undefined) gave a melting point of 125 °C.

As for `CCC(=O)Nc1cccc(-c2ccc3nnc(C)n3n2)c1`, the melting point was 265 to 268 °C.

`CCCCOC(=O)NC(=O)C(c1ccccc1)c1ccccc1` gave a melting point of 82 to 84 °C.

`C=C(c1cn(-c2c(Cl)cc(C(F)(F)F)cc2Cl)nc1C#N)C(F)(F)C(F)(F)C(F)(F)F` had a melting point of 109 to 110 °C.

On to `CC(C)(C)C(=O)c1c[nH]c2ncc(-c3cccc(NS(=O)(=O)c4ccc(N)cc4)c3)nc12`, for which the melting point lay in the range of 264 to 266 °C.

Take `CCCCCC(CC(=O)Nc1cc(C(=O)O)ccc1C(C)(C)C)c1ccc(C(=O)CC)cc1OC` (centres undefined): the melting point fell in the range of 197 to 199 °C.

Compound `Cc1cc(F)ccc1-c1cc(N2CCSCC2)ncc1C(N)=O` yielded a melting point of 198 to 202 °C.

`COc1cccc(-c2cccc(C(N)=O)c2)c1`: the melting point lay in the range of 138 to 140 °C.

Compound `O=S1(=O)c2cccc3cccc(c23)N1CCN1CCC(CCn2ccc3ccccc32)CC1` showed a melting point of 152 °C.

In turn, `Cc1ccccc1NC(=O)Nc1ccc(-c2c(Cc3ccccc3)sc3ncnc(N)c23)cc1` displayed a melting point of 245 to 248 °C.

On to `N#Cc1ccc(-c2cn(-c3ccc(I)cc3)c(S)n2)cc1`, for which the melting point lay within 285 to 290 °C.

`CC(C)(C)c1cc(C(=O)c2cc3c(cc2O)CCC3)cc(C(C)(C)C)c1O` showed a melting point of 155 to 156 °C.

`COc1cccc(C(=O)c2cccc(C(=O)O)c2)c1`: the melting point stood at 160 °C.

Turning to `Oc1cnc(C2CCCCC2)nc1`, the melting point is 163 °C.

Regarding `CC(C)(C)c1cccc(S(=O)(=O)n2c(Cc3ccc(C4=NOC(=O)C4)cc3)cc3cc(C(F)(F)F)ccc32)c1`, the melting point was found to be 70 °C.

Turning to `CCS(=O)(=O)Oc1ccc(C(C)(C)C)cc1C(C)(C)C`, the melting point was 76 °C.

As to `Nc1nc2ccccc2c2c1nc(CF)n2Cc1cc(-c2ccc(F)cc2)no1`, the melting point lay within 192 to 193 °C.

As to `CCOC(=O)CNc1ncccc1NC(=O)c1ccc(Br)cc1`, the melting point lay in the range of 153 to 154 °C.

As for `O=C(O)c1ccc(OCCCCl)cc1`, the melting point was in the range of 136 to 138 °C.

Take `CCCCCS(=O)(=O)NC(=O)c1ccc2nc(C)n(Cc3ccc(NC)cc3Cl)c2n1`: the melting point is 185 to 186 °C.

In turn, `Cc1ccc(S(=O)(=O)Nc2nc(-c3cc(F)cc(C(F)(F)F)c3)cs2)cc1` registered a melting point of 123 to 125 °C.

`CCCCCCCCCCCCCCCCCCNC(=O)c1ccccc1I` came in with a melting point of 94 to 96 °C.

`N#CCCNC1CCCC1`: the melting point was 81 to 84 °C.

For `COc1ccc(C(O)CNCCc2ccc(OC)c(OC)c2)cc1` (centres undefined), the melting point is 92 °C.

Turning to `CC(C)(C)c1nnc(-c2nn(-c3ccc(F)cc3F)c3c2C2CCC3C2)s1` (centres undefined), the melting point lay in the range of 109 to 111 °C.

The compound `Cc1[nH]c2ccc(CCN3CCCC3)cc2c1C(=O)OCc1ccccc1` gave a melting point of 76 to 78 °C.

`Cc1ccc(C)c(P(=O)(C(=O)c2c(Cl)cccc2Cl)C(=O)c2c(Cl)cccc2Cl)c1` registered a melting point of 172 °C.

`NC(=O)CCc1cccc(-c2nc(=O)c3ccccc3s2)n1` returned a melting point of 236 °C.

As to `CCCCN1Cc2c([nH]c3ccccc23)C1=O`, the melting point was in the range of 215 to 218 °C.

For `COc1ccc(N(C(=O)CN2C(=O)C(Cc3n[nH]c4ccccc34)C(=O)N(c3cccnc3)c3ccccc32)C(C)C)cc1` (single isomer, unassigned; (+)), the melting point is 214 to 215 °C.

The compound `Nc1nc(F)cc(OC(F)(F)F)n1` displayed a melting point of 86 to 89 °C.

In turn, `COc1cc(OC)cc(-c2cc(=O)c3ccc(OCC(O)CN4CCN(c5ccccc5)CC4)cc3o2)c1` (centres undefined) returned a melting point of 195 to 196 °C.

For `N#CCc1cccc2c(-c3ccc(Cl)cc3)onc12`, the melting point lay within 165 to 169 °C.

Compound `CCOC(=O)c1c(C)nc(-c2ccccc2)nc1-c1ccc(F)cc1` came in with a melting point of 82 to 94 °C.

The compound `COC(=O)C1=C(C(=O)N(C(=O)CCl)c2cc(OC)c(Cl)cc2F)CCCC1` registered a melting point of 109 °C.

Compound `CN(C)C(=O)N1CCC2(CC1)CN=C(c1cc3cccc(N(C)S(=O)(=O)c4cccs4)c3[nH]1)S2` gave a melting point of 245 °C.

Regarding `CC(C)(C)NC(=O)C1CC(Cl)CN1C(=O)C(O)C(Cc1ccccc1)NC(=O)C(CC(N)=O)NC(=O)C(COC1CCCO1)NC(=O)OCc1ccccc1` (centres undefined), the melting point lay within 64 to 71 °C.

`COc1c(N2CC(C)C(C)(N)C2)c(F)cc2c(=O)c(C(=O)O)cn(C3CC3F)c12` (centres undefined) gave a melting point of 195 to 196 °C.

`C[C@@H](NC(=O)[C@@H](NCc1nccn1C)C(C)(C)C)C(C)(C)C` showed a melting point of 131 to 132 °C.

The compound `CCc1nc(/C=C/c2cn(-c3ccccc3C)nc2O)cs1` returned a melting point of 174 to 176 °C.

In the case of `COc1ccccc1NC(=O)NCc1cccc2c1CN(C1CCC(=O)NC1=O)C2=O` (centres undefined), the melting point lay in the range of 187 to 189 °C.

Regarding `CC(C)(C)C(=O)OCOC(=O)C1CCc2c(c3ccccc3n2C(=O)c2ccccc2)C1` (centres undefined), the melting point lay within 75 to 77 °C.

For `CC(C)CN1C(=O)[C@H](CC(=O)O)O[C@@H](c2ccccc2Cl)c2cc(Cl)ccc21`, the melting point lay in the range of 183 to 186 °C.

The compound `COc1ccc(-c2nc(Sc3cccc(F)c3)[nH]c2-c2ccc(OC)cc2)cc1` displayed a melting point of 147 to 149 °C.

In turn, `Cc1cn(Cc2ccccc2[N+](=O)[O-])c(=O)o1` returned a melting point of 82.9 to 83.9 °C.

The compound `N#Cc1cnc2cc(O)c(O)cc2c1Nc1ccc(Cl)cc1F` had a melting point of 270 to 272 °C.

`O=S(=O)(Cl)c1sc(Cl)c(Cl)c1Cl` returned a melting point of 56 °C.

For `CCCS(=O)(=O)Oc1c(C(=O)c2nn(C)c(=O)n(-c3ccccc3)c2=O)cnn1C(C)C`, the melting point lay in the range of 51 to 53 °C.

Regarding `NC(=O)C1CN(c2c(F)cc3c(=O)c(C(=O)O)cn(C4CC4)c3c2F)C1`, the melting point fell in the range of 295 to 298 °C.

Compound `C[Si](C)(ON(Cc1ccccc1)Cc1ccccc1)ON(Cc1ccccc1)Cc1ccccc1` gave a melting point of 50 to 53 °C.

Take `Cc1ccccc1N(CN1C(=O)CSC1=O)C(=O)CCl`: the melting point is 133 to 136 °C.

With `CCOC(=O)C1(Nc2ccc(Oc3ccccc3)cc2)CC1`, the melting point was 80 °C.

`CS(=O)c1ccc(-n2cnc3ccc(-c4nnc(CCc5cccc(C(F)(F)F)c5)o4)cc32)cc1` (centres undefined) displayed a melting point of 169 to 170 °C.

Consider `CC(=O)OCC(C)(C)c1ccc(S(=O)(=O)Nc2ncnc(Cl)c2-c2ccc(C)cc2)cc1`, for which the melting point is 188 to 189 °C.

The compound `COC(=O)C1=C(C)NC(C)=C(C(=O)OCOC(=O)C(C)(C)C)C1c1ccccc1` (single isomer, unassigned; (+)) yielded a melting point of 81 to 82 °C.

With `CC(=NOCCC(N)=O)c1ccc(Cl)cc1`, the melting point fell in the range of 149 to 150 °C.

In the case of `CC(C)(C)OC(=O)N(O)C(=O)[C@H](N)COCc1ccccc1`, the melting point was 128 to 130 °C.

As to `NC(=O)CNC(=O)c1ccnc(-c2cccc3cc(Cc4cccc(C(F)(F)F)c4)sc23)c1F`, the melting point was in the range of 169 to 170 °C.

Regarding `O=C(NCCc1cccc2ccc(OC3C=CCCC3)cc12)C1CCC1` (centres undefined), the melting point was in the range of 104 to 106 °C.

Consider `Cc1nc2c(C=O)cccn2c1Br`, for which the melting point is 137 to 139 °C.

`CC(C)n1cc(C(=O)O)c(=O)c2cc(F)c(F)c(F)c21` had a melting point of 256 to 260 °C.

The compound `COc1ccc(C(=O)Nc2cccc(O)c2NC(=O)c2ccc(OC)cc2)cc1` displayed a melting point of 208 to 209 °C.

For `Cc1cc(-n2ccnc2)c2cccc(OCc3c(Cl)ccc(S(=O)(=O)N4CCC[C@H]4C(=O)NCC4CCN(Cc5ccncc5)CC4)c3Cl)c2n1`, the melting point came out at 113 °C.

Compound `COC(C)C(O)(Cc1ccc(Cl)cc1Cl)c1cccnc1` (centres undefined) returned a melting point of 94 to 95 °C.

For the compound `COc1ccc(-n2nc(Sc3cccc4ccccc34)c(C)c(C#N)c2=O)cc1`, the melting point was 181 to 183 °C.

For `CCCCCCN(C)c1ccc(C=C2SC(=S)N(CC(=O)NS(=O)(=O)C(F)(F)F)C2=O)cc1`, the melting point lay within 94 to 97 °C.

With `Cc1cc(SCCSCC(=O)O)ccc1O`, the melting point was 86 °C.

In turn, `Cc1c(C)c2c(c(C)c1N)CC(C)(CSCCO)O2` (centres undefined) came in with a melting point of 108 to 109 °C.

As for `Cc1c(NC(=O)c2ccc(-c3cc4ccccc4s3)cc2)ccc2cc(CN3CCCC3)cnc12`, the melting point was in the range of 217 to 218 °C.

As for `O=S(=O)(Nc1ccc2c(OCc3ccc(OC(F)(F)F)cc3)cccc2c1)C(F)(F)F`, the melting point lay within 80 to 82 °C.

In the case of `CC(=Cc1ccccc1)c1ccc2c(c1)C(C)(C)CCS2`, the melting point is 81 to 83 °C.

In the case of `CC(C)(C)OC(=O)N1CCCC(C(=O)OCC(=O)C(C)(C)C)(C(=O)OCc2ccccc2)C1` (centres undefined), the melting point worked out at 60 °C.

`COc1ccc(NC(=O)Nc2ccc(Cl)c(Cl)c2)cc1NS(=O)(=O)c1cc(Cl)cc(Cl)c1`: the melting point was in the range of 225 to 227 °C.

The compound `Cn1c(COc2ccc(C=O)cc2)nc2ccc(Sc3cc(C(C)(C)C)c(O)c(C(C)(C)C)c3)cc21` came in with a melting point of 219 to 221 °C.

As to `CC(C)(C)c1cc(C(=O)c2ccc(C#N)cc2)cc(C(C)(C)C)c1O`, the melting point lay within 166 to 168 °C.

On to `CCOc1cc(NC(=O)CCC(=O)c2ccc(OCC)c(OCC)c2)nc(-c2ccccc2)c1`, for which the melting point lay in the range of 172 to 173 °C.

`CC1(C)Oc2ccc(C#N)cc2[C@@H](NC=O)[C@@H]1O` (relative stereo) registered a melting point of 228 to 230 °C.

With `CNc1cnc(N(Cc2ccccc2)C(=O)OCc2ccccc2)cc1-c1ccccc1C`, the melting point was in the range of 110 to 112 °C.

In turn, `Cc1ccc(C[C@H]2NC(=O)CN(Cc3ccccc3)C2=O)cc1C` came in with a melting point of 191 to 192 °C.

Consider `Cn1ncnc1COc1nn2c(-c3ccccc3F)nncc2c1-c1cccs1`, for which the melting point was 196 to 197 °C.

Consider `O=C1CN=C(c2cccc(Cl)c2)c2cc(C(=O)c3ccc(Cl)cc3)ccc2N1`, for which the melting point amounted to 265 °C.

For `CCC1c2cccn2-c2cc(Cl)ccc2N1S(=O)(=O)c1ccc(O)cc1` (centres undefined), the melting point lay within 192 to 194 °C.

On to `O=C(N1CCCC1)N1CCN(Cc2ccc3c(c2)-c2[nH]nc(-c4ccsc4)c2C3)CC1`, for which the melting point lay within 214 to 216 °C.
